Reference: US7145010B2, “Tert-alkylphenoxy-substituted polycyclic compounds” (BASF Aktiengesellschaft, priority 2001, dated 2006)
≈ marks a conversion by molar mass, not a printed value.

Columns and labels:
[1] = Solubility in extremely nonpolar to polar solvents
[2] = Homogeneous incorporation into aqueous polymer dispersions (Example 25 of WO-A-99/40123 repeated); assay type: physicochemical
From the text: Example 25 of WO-A-99/40123 was repeated to prepare aqueous polymer dispersions containing 15% by weight of the fluorescent colorant of Example 2 or […] of the near infrared absorber of Example 6 in homogeneous dispersion. The corresponding phenoxy-substituted derivatives, by contrast, were only incorporable with homogeneous results up to a concentration of respectively 7 and 1% by weight.

1:1 mixture of N,N′-bis(2,6-diisopropylphenyl)-1,6,8,11,16,18-hexa(p-tert-octylphenoxy)-quaterrylene-3,4:13,14-tetracarboxylic diimide and N,N′-bis(2,6-diisopropyl-phenyl)-1,6,8,11,16,19-hexa(p-tert-octylphenoxy)quaterrylene-3,4:13,14-tetracarboxylic diimide [Example 6]
Solubility in Isopropanol (50° C.) [1]: 49 mg/mL | Solubility in Pentane (25° C.) [1]: 55 mg/mL | Solubility in Toluene (25° C.) [1]: >500 mg/mL

CC(C)c1cccc(C(C)C)c1N1C(=O)c2ccc3c4c(Oc5ccc(C(C)(C)CC(C)(C)C)cc5)cc5c6c(ccc(c7c(Oc8ccc(C(C)(C)CC(C)(C)C)cc8)cc(c2c37)C1=O)c64)C(=O)N(c1c(C(C)C)cccc1C(C)C)C5=O [Example 4]
Solubility in Isopropanol (50° C.) [1]: 59 mg/mL (≈ 52.7 mM) | Solubility in Pentane (25° C.) [1]: 55 mg/mL (≈ 49.1 mM) | Solubility in Toluene (25° C.) [1]: >250 mg/mL

CC(C)c1cccc(C(C)C)c1N1C(=O)c2cc(Oc3ccc(C(C)(C)CC4CCCCC4)cc3)c3c4c(Oc5ccc(C(C)(C)CC6CCCCC6)cc5)cc5c6c(cc(Oc7ccc(C(C)(C)CC8CCCCC8)cc7)c(c7c(Oc8ccc(C(C)(C)CC9CCCCC9)cc8)cc(c2c37)C1=O)c64)C(=O)N(c1c(C(C)C)cccc1C(C)C)C5=O [Example 3]
Solubility in Isopropanol (50° C.) [1]: 87 mg/mL (≈ 53.3 mM) | Solubility in Pentane (25° C.) [1]: 65 mg/mL (≈ 39.8 mM) | Solubility in Toluene (25° C.) [1]: >350 mg/mL

CC(C)c1cccc(C(C)C)c1N1C(=O)c2cc(Oc3ccc(C(C)(C)CC(C)(C)C)cc3)c3c4c(Oc5ccc(C(C)(C)CC(C)(C)C)cc5)cc5c6c(cc(Oc7ccc(C(C)(C)CC(C)(C)C)cc7)c(c7c(Oc8ccc(C(C)(C)CC(C)(C)C)cc8)cc(c2c37)C1=O)c64)C(=O)N(c1c(C(C)C)cccc1C(C)C)C5=O [Example 2]
Concentration contained in homogeneous dispersion in aqueous polymer dispersion [2]: 15 % by weight | Solubility in Isopropanol (50° C.) [1]: 92 mg/mL (≈ 60.2 mM) | Solubility in Pentane (25° C.) [1]: 81 mg/mL (≈ 53 mM) | Solubility in Toluene (25° C.) [1]: >400 mg/mL

CCCCCCCCCCCCN1C(=O)c2ccc3c4c(Oc5ccc(C(C)(C)CC(C)(C)C)cc5)cc5c6c(ccc(c7c(Oc8ccc(C(C)(C)CC(C)(C)C)cc8)cc(c2c37)C1=O)c64)C(=O)N(CCCCCCCCCCCC)C5=O [Example 5]
Solubility in Isopropanol (50° C.) [1]: 47 mg/mL (≈ 41.4 mM) | Solubility in Pentane (25° C.) [1]: 24 mg/mL (≈ 21.1 mM) | Solubility in Toluene (25° C.) [1]: 155 mg/mL (≈ 136 mM)

CC(C)c1cccc(C(C)C)c1N1C(=O)c2cc(Oc3ccc(C(C)(C)CC(C)(C)C)cc3)c3c4cccc5c(Oc6ccc(C(C)(C)CC(C)(C)C)cc6)ccc(c6c(Oc7ccc(C(C)(C)CC(C)(C)C)cc7)cc(c2c36)C1=O)c54 [Example 1]
Solubility in Isopropanol (50° C.) [1]: 56 mg/mL (≈ 51.2 mM) | Solubility in Pentane (25° C.) [1]: 53 mg/mL (≈ 48.4 mM) | Solubility in Toluene (25° C.) [1]: >250 mg/mL
